Measurements as given in patent US20010051646A1, “Method for the improvement of islet signaling in diabetes mellitus and for its prevention” (priority 2000, published 2001).
Marks after values point to notes of the source that are not given here.

Columns and labels:
[1] = target: T1, PepT1 intestinal peptide transporter (Homo sapiens, UniProt P46059); assay: Active transport through the intestinal mucosa
T1 sequence (P46059 1-708): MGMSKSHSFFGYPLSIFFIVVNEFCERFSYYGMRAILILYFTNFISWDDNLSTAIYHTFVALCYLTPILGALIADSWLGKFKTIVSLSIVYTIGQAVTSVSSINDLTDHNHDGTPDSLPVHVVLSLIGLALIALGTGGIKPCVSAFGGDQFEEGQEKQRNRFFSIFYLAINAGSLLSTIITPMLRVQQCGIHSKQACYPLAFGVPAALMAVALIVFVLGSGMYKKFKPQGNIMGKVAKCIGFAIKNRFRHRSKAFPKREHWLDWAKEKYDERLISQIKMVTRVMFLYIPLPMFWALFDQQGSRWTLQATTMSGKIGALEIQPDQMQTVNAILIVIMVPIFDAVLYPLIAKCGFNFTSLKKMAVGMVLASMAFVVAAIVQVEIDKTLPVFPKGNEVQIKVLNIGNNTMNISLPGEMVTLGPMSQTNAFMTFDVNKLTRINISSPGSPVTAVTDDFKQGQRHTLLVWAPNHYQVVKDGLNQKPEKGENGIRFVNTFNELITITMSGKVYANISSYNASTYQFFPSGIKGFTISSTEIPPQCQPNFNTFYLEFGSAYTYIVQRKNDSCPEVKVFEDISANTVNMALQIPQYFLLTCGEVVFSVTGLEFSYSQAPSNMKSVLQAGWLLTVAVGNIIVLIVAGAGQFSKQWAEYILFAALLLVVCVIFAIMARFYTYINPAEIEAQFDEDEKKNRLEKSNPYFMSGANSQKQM

healthy male volunteers = assay: First-human study of P32/98 with extended OGTT: active GLP-1, insulin and glucose; assay type: in vivo; details: for Maximum change in GLP-1, active (0-12h, median) / Maximum change in glucose (0-12h, median) / Maximum change in insulin (0-12h, median): OGTT; for Increase of mean insulin concentration after 75 g glucose at 10 min post-dose: within 40-55 min
Text: The 36 healthy male subjects were divided into 3 individual groups with each group containing 12 subjects. […] The subjects in all groups who were receiving placebo were given placebo at both dosing intervals.
Each subject participated in the pre-study and experimental phase, which were separated by a washout phase of at least 5 days. The follow-up examination was done at least 7 days after the last dose of study drug. The study procedures of the six periods were identical, except for the dose under investigation.
At each glucose tolerance test, subjects ingested 300 mL of a mono-/disaccharid solution equivalent to 75 g glucose (Dextro®O.G.-T, Boehringer Mannheim, FRG).
An extended OGTT was performed on Day 1 of each dosing period. Subjects ingested 300 mL of a mono-/disaccharid solution equivalent to 75 g glucose. […] Additionally other pharmacodynamic assessments that are well known in the art were taken.
Insulin: 4.7 ml blood was collected into 4.9 ml EDTA-tubes. Samples were centrifuged (1500 g, 10 min) and stored frozen at −70° C. until laboratory analysis.
Glucose: 1.2 ml blood was collected into 1.2 ml sodium fluoride tubes. Plasma samples were centrifuged at 1500 g for 10 min and stored frozen at −70° C. until laboratory analysis. GLP-1: 2.7 ml blood was collected in EDTA tubes and placed on ice or refrigerated, to which a dipeptidyl peptidase IV-inhibitor was added. The inhibitor was prepared in advance by researchers. Blood was collected in tubes and centrifuged immediately at 1000 g for 10 min in refrigerated centrifuge or the blood was placed in ice and centrifuged within 1 hour and aliquoted into equal samples. Blood was stored in appropriate aliquots at −70° C. (to avoid multiple freezing/thawing cycles) until laboratory analysis.

isoleucyl thiazolidine hemifumarate [P32/98]
Transport via the PepT1 intestinal peptide transporter [1]: actively transported | Baseline-corrected mean peak (Cmax) glucose concentration (healthy male volunteers; 7.5 mg): exceeded 4.0 mmol/l | Mean baseline-corrected glucose AUC (healthy male volunteers; 7.5 mg): > 200 mmol·min/L | Maximum change in GLP-1, active (0-12h, median) (healthy male volunteers; 7.5 mg oral single dose): 4.10 pmol/L | Maximum change in glucose (0-12h, median) (healthy male volunteers; 7.5 mg oral single dose): 4.66 mmol/L | Maximum change in insulin (0-12h, median) (healthy male volunteers; 7.5 mg oral single dose): 41.86 μIU/ml | Corrected AUC0→180 min of glucose concentrations after OGTT, Mean ± SD (healthy male volunteers; 7.5 mg, periods 1-3): 299.7 ± 111.4 mmol·min | Corrected Cmax of glucose concentrations 0-3 h after OGTT, Mean ± SD (healthy male volunteers; 7.5 mg, periods 1-3): 4.94 ± 1.58 mmol | Corrected glucose AUC0→180 min, Estimate (ANOVA comparison versus placebo) (healthy male volunteers; 7.5 mg, periods 1-3): 75.8 mmol·min | Corrected glucose Cmax, Estimate (ANOVA comparison versus placebo) (healthy male volunteers; 7.5 mg, periods 1-3): 0.78 mmol | Baseline-corrected mean peak (Cmax) glucose concentration (healthy male volunteers; 15 mg): below 3.0 mmol/l | Increase of group mean active GLP-1 concentration over pre-dose (healthy male volunteers; 15 mg): 11.6 pmol/L | Mean baseline-corrected glucose AUC (healthy male volunteers; 15 mg): below 200 mmol*min/l | Maximum change in GLP-1, active (0-12h, median) (healthy male volunteers; 15 mg oral single dose): 10.00 pmol/L | Maximum change in glucose (0-12h, median) (healthy male volunteers; 15 mg oral single dose): 2.43 mmol/L | Maximum change in insulin (0-12h, median) (healthy male volunteers; 15 mg oral single dose): 29.67 μIU/ml | Mean changes of glucose concentration at maximum (healthy male volunteers; 15 mg, 60 mg and 240 mg dosing groups): 1.71 to 3.41 mmol/L | Corrected AUC0→180 min of glucose concentrations after OGTT, Mean ± SD (healthy male volunteers; 15 mg, periods 1-3): 130.9 ± 125.2 mmol·min | Corrected Cmax of glucose concentrations 0-3 h after OGTT, Mean ± SD (healthy male volunteers; 15 mg, periods 1-3): 2.92 ± 1.10 mmol | Corrected glucose AUC0→180 min, Estimate (ANOVA comparison versus placebo) (healthy male volunteers; 15 mg, periods 1-3): -93.0 mmol·min | Corrected glucose Cmax, Estimate (ANOVA comparison versus placebo) (healthy male volunteers; 15 mg, periods 1-3): −1.24* mmol | Maximum change in GLP-1, active (0-12h, median) (healthy male volunteers; 30 mg oral single dose): 10.60 pmol/L | Maximum change in glucose (0-12h, median) (healthy male volunteers; 30 mg oral single dose): 3.38 mmol/L | Maximum change in insulin (0-12h, median) (healthy male volunteers; 30 mg oral single dose): 59.84 μIU/ml | Corrected AUC0→180 min of glucose concentrations after OGTT, Mean ± SD (healthy male volunteers; 30 mg, periods 1-3): 116.1 ± 134.0 mmol·min | Corrected Cmax of glucose concentrations 0-3 h after OGTT, Mean ± SD (healthy male volunteers; 30 mg, periods 1-3): 3.26 ± 1.07 mmol | Corrected glucose AUC0→180 min, Estimate (ANOVA comparison versus placebo) (healthy male volunteers; 30 mg, periods 1-3): -107.7 mmol·min | Corrected glucose Cmax, Estimate (ANOVA comparison versus placebo) (healthy male volunteers; 30 mg, periods 1-3): -0.90 mmol | Increase of mean insulin concentration after 75 g glucose at 10 min post-dose (healthy male volunteers; 30 mg): 56.92 μIU/ml | Maximum change in GLP-1, active (0-12h, median) (healthy male volunteers; 60 mg oral single dose): 12.20 pmol/L | Maximum change in glucose (0-12h, median) (healthy male volunteers; 60 mg oral single dose): 2.92 mmol/L | Maximum change in insulin (0-12h, median) (healthy male volunteers; 60 mg oral single dose): 43.35 μIU/ml | Corrected AUC0→180 min of glucose concentrations after OGTT, Mean ± SD (healthy male volunteers; 60 mg, periods 4-6): 151.8 ± 99.2 mmol·min | Corrected Cmax of glucose concentrations 0-3 h after OGTT, Mean ± SD (healthy male volunteers; 60 mg, periods 4-6): 3.50 ± 1.66 mmol | Corrected glucose AUC0→180 min, Estimate (ANOVA comparison versus placebo) (healthy male volunteers; 60 mg, periods 4-6): -101.1 mmol·min | Corrected glucose Cmax, Estimate (ANOVA comparison versus placebo) (healthy male volunteers; 60 mg, periods 4-6): −1.41* mmol | Maximum change in GLP-1, active (0-12h, median) (healthy male volunteers; 120 mg oral single dose): 11.10 pmol/L | Maximum change in glucose (0-12h, median) (healthy male volunteers; 120 mg oral single dose): 2.39 mmol/L | Maximum change in insulin (0-12h, median) (healthy male volunteers; 120 mg oral single dose): 28.63 μIU/ml | Corrected AUC0→180 min of glucose concentrations after OGTT, Mean ± SD (healthy male volunteers; 120 mg, periods 4-6): 126.7 ± 147.3 mmol·min | Corrected Cmax of glucose concentrations 0-3 h after OGTT, Mean ± SD (healthy male volunteers; 120 mg, periods 4-6): 3.09 ± 1.47 mmol | Corrected glucose AUC0→180 min, Estimate (ANOVA comparison versus placebo) (healthy male volunteers; 120 mg, periods 4-6): −126-1* mmol*min/ | Corrected glucose Cmax, Estimate (ANOVA comparison versus placebo) (healthy male volunteers; 120 mg, periods 4-6): −1.82** mmol | Increase of mean insulin concentration after 75 g glucose at 10 min post-dose (healthy male volunteers; 120 mg): 30.12 μIU/ml | Baseline-corrected mean peak (Cmax) glucose concentration (healthy male volunteers; 240 mg): below 3.0 mmol/l | Increase of group mean active GLP-1 concentration over pre-dose (healthy male volunteers; 240 mg): 15.99 pmol/L | Mean baseline-corrected glucose AUC (healthy male volunteers; 240 mg): below 200 mmol*min/l | Maximum change in GLP-1, active (0-12h, median) (healthy male volunteers; 240 mg oral single dose): 14.50 pmol/L | Maximum change in glucose (0-12h, median) (healthy male volunteers; 240 mg oral single dose): 1.73 mmol/L | Maximum change in insulin (0-12h, median) (healthy male volunteers; 240 mg oral single dose): 33.36 μIU/ml | Corrected AUC0→180 min of glucose concentrations after OGTT, Mean ± SD (healthy male volunteers; 240 mg, periods 4-6): 24.7 ± 66.6 mmol·min | Corrected Cmax of glucose concentrations 0-3 h after OGTT, Mean ± SD (healthy male volunteers; 240 mg, periods 4-6): 1.99 ± 0.69 mmol | Corrected glucose AUC0→180 min, Estimate (ANOVA comparison versus placebo) (healthy male volunteers; 240 mg, periods 4-6): −228.2*** mmol*min/ | Corrected glucose Cmax, Estimate (ANOVA comparison versus placebo) (healthy male volunteers; 240 mg, periods 4-6): −2.92*** mmol | Effect on active GLP-1 (healthy male volunteers; 7.5-mg dose level): no effect discernible from placebo treatment | Increase of glucose concentrations during the OGTT compared with placebo (healthy male volunteers; 15-240 mg): significantly lower increase | Insulin concentrations following stimulation with 75 g glucose (healthy male volunteers; 120-240 mg): appeared to be decreased
